# Results published in PMC9977057, “Indenyl-thiazole and indenyl-formazan derivatives: Synthesis, anticancer screening studies, molecular-docking, and pharmacokinetic/ molin-spiration properties” (PLOS ONE, 2023).
# Legend:
# [1] = test system: Gastric (SNU-16) Patch number (ATCC CRL-5822); experiment: SRB cytotoxicity assay, gastric cancer cells SNU-16; format: cell-based
# Description: (§1) A- Cell culture. The cells were obtained from the Egyptian Holding Company for Biological Products & Vaccines (VACSERA), Giza, Egypt, then maintained in the tissue culture unit. […] The cells were maintained as monolayer culture by serial sub‐culturing. Cell culture reagents were obtained from Lonza (Basel, Switzerland).
# (§2) Sulforhodamine B(SRB) assay method was used to evaluate cytotoxicity. […] After 24 h, cells were incubated for 72 h with various concentrations of the tested compounds. Following 72 h treatments, the cells would be fixed with 10% trichloroacetic acid for 1 h at 4°C. Wells were stained for 10 minutes at room temperature with 0.4% SRBC (Sulphorhodamine B) dissolved in 1% acetic acid. After that, the plates were air-dried for 24 h. At the same time, the dye was dissolved in Tris‐HCl and left for 5 min on the shaker at 1600 rpm. Each well’s optical density (OD) was measured spectrophotometrically at 564 nm; by using an ELISA microplate reader (ChroMate‐4300, FL, USA). The IC50 values were calculated according to the equation for Boltzman sigmoidal concentration-response curve using the nonlinear regression fitting models (Graph Pad, Prism Version 9).
# [2] = test system: COLO205 cells (colon cancer); experiment: SRB cytotoxicity assay, colon cancer cells COLO205; format: cell-based
# Description: as §1, §2
# normal cell = experiment: Cytotoxicity on a normal cell (for selectivity index); format: cell-based; settings: for IC50: column head names no cell, normal cell according to b79; for SI (selectivity index): ratio IC50 on normal cell / IC50 on cancer cell line
# Description: Sulforhodamine B(SRB) assay method was used to evaluate cytotoxicity. Exponentially growing cells were collected using 0.25% Trypsin‐EDTA seeded in 96‐well plates at 1000‐2000 cells/well in RBMI‐1640 supplemented medium. After 24 h, cells were incubated for 72 h with various concentrations of the tested compounds. Following 72 h treatments, the cells would be fixed with 10% trichloroacetic acid for 1 h at 4°C. Wells were stained for 10 minutes at room temperature with 0.4% SRBC (Sulphorhodamine B) dissolved in 1% acetic acid. After that, the plates were air-dried for 24 h. At the same time, the dye was dissolved in Tris‐HCl and left for 5 min on the shaker at 1600 rpm. Each well’s optical density (OD) was measured spectrophotometrically at 564 nm; by using an ELISA microplate reader (ChroMate‐4300, FL, USA). The IC50 values were calculated according to the equation for Boltzman sigmoidal concentration-response curve using the nonlinear regression fitting models (Graph Pad, Prism Version 9).
# The compounds show good selectivity toward cancerous cells, represented by the “selectivity index.” The selectivity index was previously used to measure selective cytotoxic activity. The selectivity index (SI) can be calculated from the ratio between IC50 of the compound on a normal cell and the compound on a cancer cell line. For example, the SI of compounds 6d, 10a, 10d, and 16 are 86.98, 76.82, 74.32, and 54.13, respectively.
# [3] = Homo sapiens, SNU-16, 72 h incubation
# [4] = Homo sapiens, COLO 205, 72 h incubation
Compound,"IC50 [1, 3]","IC50 [2, 4]",IC50 (normal cell),melting point,SI (selectivity index) (normal cell),IC50 ([1]; 72 h incubation),IC50 ([2]; 72 h incubation)
"Cc1nc(N/N=C2\CCc3cc(Br)ccc32)sc1/N=N/c1ccccc1 [6a, 2-(2h4(5-Bromo-2,3-dihydro-1H-inden-1-ylidene)hydrazineyl)-4-methyl-5-(phenyldiazenyl)-thiazole]",21.79 ± 0.076 µM,17.14 ± 0.12 µM,> 100 µM,220 to 222 °C,–,–,–
"Cc1cccc(N=Nc2sc(NN=C3CCc4cc(Br)ccc43)nc2C)c1 [6b, 2-(2-(5-Bromo-2,3-dihydro-1H-inden-1-ylidene)hydrazineyl)-4-methyl-5-(m-tolyldiazenyl)-thiazole]",12.28 ± 0.03 µM,9.813 ± 0.005 µM,> 100 µM,128 to 129 °C,–,–,–
"Cc1ccc(N=Nc2sc(NN=C3CCc4cc(Br)ccc43)nc2C)cc1 [6c, 2-(2-(5-Bromo-2,3-dihydro-1H-inden-1-ylidene)hydrazineyl)-4-methyl-5-(p-tolyldiazenyl)thiazole]",12.89 ± 0.076 µM,7.576 ± 0.07 µM,> 100 µM,130 to 132 °C,–,–,–
"Cc1nc(NN=C2CCc3cc(Br)ccc32)sc1N=Nc1cccc(Cl)c1 [6d, 2-(2-(5-Bromo-2,3-dihydro-1H-inden-1-ylidene)hydrazineyl)-5-((3-chlorophenyl)-diazenyl)-4-methylthiazole]",19.79 ± 0.129 µM,6.958 ± 0.04 µM,605 ± 35.2 µM,–,86.98,–,–
"Cc1nc(NN=C2CCc3cc(Br)ccc32)sc1N=Nc1ccc(Cl)cc1 [6e, 2-(2-(5-Bromo-2,3-dihydro-1H-inden-1-ylidene)hydrazineyl)-5-((4-chlorophenyl)diazenyl)-4-methylthiazole]",26.19 ± 0.12 µM,7.276 ± 0.03 µM,> 100 µM,177 to 178 °C,–,–,–
"Brc1ccc2c(c1)CCC2=NNc1nc(-c2ccccc2)cs1 [10a, N-(5-Bromo-indan-1-ylidene)-N’-(4-phenyl-thiazol-2-yl)-hydrazine]",20 ± 0.64 µM,6.301 ± 0.008 µM,485 ± 7.89 µM,–,76.82,–,–
"Cc1ccc(-c2csc(NN=C3CCc4cc(Br)ccc43)n2)cc1 [10b, N-(5-Bromo-indan-1-ylidene)-N’-(4-p-tolyl-thiazol-2-yl)-hydrazine]",18.3 ± 0.39 µM,12.08 ± 0.006 µM,> 100 µM,233 to 234 °C,–,–,–
"Brc1ccc(-c2csc(NN=C3CCc4cc(Br)ccc43)n2)cc1 [10c, N-(5-Bromo-indan-1-ylidene)-N’-[4-(4-bromo-phenyl)-thiazol-2-yl]-hydrazine]",26.8 ± 0.6 µM,13.81 ± 0.025 µM,> 100 µM,230 to 232 °C,–,–,–
"Clc1ccc(-c2csc(NN=C3CCc4cc(Br)ccc43)n2)cc1 [10d, N-(5-Bromo-indan-1-ylidene)-N’-[4-(4-chloro-phenyl)-thiazol-2-yl]-hydrazine]",7.576 ± 0.075 µM,12.16 ± 0.06 µM,563 ± 44.2 µM,–,74.32,–,–
"CC(=O)C(=NNc1ccccc1)NN=C1CCc2cc(Br)ccc21 [14a, N’-(5-bromo-2,3-dihydro-1H-inden-1-ylidene)-2-oxo-N’’-phenylpropanehydrazonhydrazide]",14.9 ± 0.3 µM,11.27 ± 0.046 µM,> 100 µM,190 °C,–,–,–
"CC(=O)/C(=N\Nc1ccc(Cl)cc1)N/N=C1\CCc2cc(Br)ccc21 [14b, N’-(5-bromo-2,3-dihydro-1H-inden-1-ylidene)-N’’-(4-chlorophenyl)-2-oxopropanehydrazon-hydrazide]",13.8 ± 0.69 µM,10.61 ± 0.09 µM,> 100 µM,197 to 198 °C,–,–,–
"N.N.[Cl][Pt][Cl] [Cisplatin, reference compound]",–,–,548 ± 61.2 µM,–,–,11.27 ± 0.076 µM,9.13 ± 0.07 µM
"NC(=S)NN=C1CCc2cc(Br)ccc21 [compound 3, 2-(5-Bromo-2,3-dihydro-1H-inden-1-ylidene)hydrazine-1-carbothioamide]",19.01 ± 0.133 µM,14.1 ± 0.04 µM,> 100 µM,227 to 230 °C,–,–,–
"NN=C1CCc2cc(Br)ccc21 [compound 4, (5-Bromo-indan-1-ylidene)-hydrazine]",23.2 ± 0.204 µM,8.167 ± 0.07 µM,> 100 µM,120 °C,–,–,–
"CCOC(=O)C(=NNc1ccccc1)NN=C1CCc2cc(Br)ccc21 [compound 15, Ethyl 2-(2-(5-bromo-2,3-dihydro-1H-inden-1-ylidene)hydrazineyl)-2-(2-phenyl-hydrazineylidene)acetate]",16.6 ± 0.38 µM,13.63 ± 0.04 µM,> 100 µM,174 to 176 °C,–,–,–
"O=C(Nc1ccccc1)C(=NNc1ccccc1)NN=C1CCc2cc(Br)ccc21 [compound 16, 2-(2-(5-Bromo-2,3-dihydro-1H-inden-1-ylidene)hydrazineyl)-N-phenyl-2-(2-phenyl-hydrazineylidene)acetamide]",9.699 ± 0.0726 µM,13.04 ± 0.025 µM,525 ± 36.2 µM,–,54.13,–,–
"CCN(CC)CCNC(=O)c1c(C)[nH]c(/C=C2\C(=O)Nc3ccc(F)cc32)c1C [sunitinib, reference compound]",8.45 ± 0.023 µM,11.27 ± 0.033 µM,378 ± 31.8 µM,–,–,–,–
